Measurements reported in publication PMC4888459 (Biochemical Journal, 2016).

What was measured:
[1] = target: agmatine deiminase (AgD) (Listeria monocytogenes, UniProt A0A0H3G8U9); assay: IC50, colorimetric; assay type: biochemical
[2] = target: AgD from S. mutans (agmatine deiminase) (Streptococcus mutans, UniProt Q8DW17); assay: IC50 plot; assay type: biochemical
[3] = substrate: N=C(N)NCCCCN; assay: purified protein; assay type: biochemical, Listeria monocytogenes; settings: active site (Cys356, His216; Asp94 and Asp218 believed to orient the substrate)

Chain of AgD from S. mutans (agmatine deiminase) (Q8DW17 whole entry): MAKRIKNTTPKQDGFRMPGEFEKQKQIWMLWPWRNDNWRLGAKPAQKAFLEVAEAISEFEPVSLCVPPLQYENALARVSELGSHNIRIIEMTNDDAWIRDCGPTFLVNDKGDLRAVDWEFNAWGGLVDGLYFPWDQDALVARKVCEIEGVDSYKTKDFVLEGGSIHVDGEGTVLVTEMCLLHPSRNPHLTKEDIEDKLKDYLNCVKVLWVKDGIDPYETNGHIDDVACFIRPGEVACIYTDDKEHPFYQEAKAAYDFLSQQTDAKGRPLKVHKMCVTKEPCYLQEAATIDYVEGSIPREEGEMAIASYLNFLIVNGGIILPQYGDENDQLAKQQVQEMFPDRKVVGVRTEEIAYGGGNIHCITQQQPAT

Molecule | IC50 [1] | also measured
N=C(CF)NCCCCN [ABFA, N-(4-aminobutyl)-2-fluoro-ethanimidamide] | 146 ± 15 µM | –
N=C(N)CCl [2-chloroacetamidine] | – | IC50 [2]: 400 ± 100 µM
N=C(CCl)NCCCCN [ABCA, N-(4-aminobutyl)-2-chloro-ethanimidamide] | 78.5 ± 1.7 µM | –
agmatine deiminase (AgD) (Listeria monocytogenes 10403S) (protein) MRTIDSSSKKDGFRMPGEFEKHAGCYIIWPERPDNWRLGAKPAQKAFVDVATAISHFEPVTVVASSSQYVNARYMLSDEIRVVEMDNDDAWVRDSGPTFVVNDSGDVRGVDWSFNSWGGLVDGLYFPWDKDDQVAQKICELERKDRYRLADFVLEGGSIHVDGEGTLVTTEECLLSEGRNPQLSKQQIEMVLKEYLNLEKIIWLKRGIYLDETNGHVDNIFNYVRPGVVALAWTDDETDPQYEISKECFDILSNETDAKGRKLEVHKINVPKPILITDEESKGVDAVEGTLPREEGDRLAASYINYYTANGGVIFPLFGDPNDELAREKLQQLYPNCEVVGVKAREILLGGGNIHCITQQVPRG | – | Km [3]: 330 ± 90.0 µM
